Laboratory results as given in patent US20230067910A1, “NOVEL COMPOUNDS FOR THE DIAGNOSIS, TREATMENT AND PREVENTION OF DISEASES ASSOCIATED WITH THE AGGREGATION OF ALPHA-SYNUCLEIN” (MODAG GMBH, priority 2019, published 2023).

Biological target: T1, alpha-synuclein (sonicated fibrils) (Homo sapiens, UniProt P37840)
T1 construct: made in house; host or cells: E. coli
Assay: Modified competition binding assay, protocol 3b, reference ligand [3H]-compound 2
Conditions: Table 5, reference ligand [3H]-compound 2 (1 nM)
Procedure: Alpha-synuclein and tau46 were purified from E. coli according to established protocols (Nuscher B, et al., J. Biol. Chem., 2004; 279(21):21966-75), Aβ1-42 was obtained from rPeptide, Watkinsville, Ga., USA. Fibrils were prepared by aggregation of recombinant protein via constant agitation. In detail, 70 μM of alpha-synuclein mixed with 100 mM NaCl in 50 mM Tris, pH 7.0+0.02% NaN3 were incubated at 1,400 rpm, 37° C. for 96 h. 10 μM of tau46 were incubated with 0.03 mg/ml heparin in 50 mM Tris, pH=7.0 at 1,000 rpm, 37° C. for 72 h. Aβ1-42 was solved in 20 mM NaPi, pH=8.0+0.2 mM EDTA+0.02% NaN3 (Deeg A A, et al., Biochim. Biophys. Acta, 2015; 1850(9): 1884-90; Goedert M, et al. Nature, 1996; 383(6600): 550-3).
For competition binding experiments, a fixed concentration of recombinant αSYN fibrils (sonicated, 15 nM/well) was incubated with 1 nM [^3H]-compound 1 or [3H]-compound 2 and decreasing concentrations of a serial dilution of non-labeled competitor (serial dilution 1:4 or 1:3.5 or 1:3 providing the concentration ranges of non-labeled competitor 1 μM-[…] 1 μM-4 nM or 1 μM-[…], respectively) in 30 mM Tris-HCl, 10% ethanol, 0.05% Tween20, pH 7.4 in a total volume of 200 μL/well. Plates were incubated for 4.5 hours at RT covered by removable sealing tape (PerkinElmer, Waltham, Mass., USA).
Filtration and readout were performed as described for saturation binding assays. [^3H]-labeled ligand binding [in CMP] was plotted against increasing competitor concentrations and data points were fitted using non-linear regression analysis to calculate the IC50 and Ki values (GraphPad Software, Inc., Version 7.03, La Jolla (Calif.), USA). In the competition binding assay with sonicated recombinant αSYN fibrils, the calculation of Ki values was done based on KD values of 0.6 nM and 0.2 nM for compound 1 and compound 2, respectively.
The fibril competition assay provides Ki values. Ki is a quantitative measure that represents the concentration of the non-radioactive tested compound (competitor ligand) required to replace 50% of a reference compound, in this case [H]-compound 1 (1 nM) or [H]-compound 2 (1 nM), which is bound to the target structures (1 nM), in our case recombinant alpha-synuclein and tau46 fibrils. This assay is suitable for a screening of non-radioactive ligands.

Molecule	Ki [nM]
CCNc1ccc(-c2cc(-c3ccnc(Br)c3)[nH]n2)cc1 [Compound 23, 4-[5-(2-bromopyridin-4-yl)-1H-pyrazol-3-yl]-N-ethylaniline]	0.5
CNc1ccc(-c2cc(-c3ccnc(Cl)c3)[nH]n2)cc1 [Compound 22, 4-[5-(2-chloropyridin-4-yl)-1H-pyrazol-3-yl]-N-methylaniline]	0.3
CNc1ccc(-c2cc(-c3cncc(Cl)n3)[nH]n2)cc1 [Compound 36, 4-[5-(6-chloropyrazin-2-yl)-1H-pyrazol-3-yl]-N-methylaniline]	12
Clc1c(-c2ccc3c(c2)OCO3)n[nH]c1-c1ccnc(Br)c1 [Compound 28, 4-[3-(1,3-benzodioxol-5-yl)-4-chloro-1H-pyrazol-5-yl]-2-bromopyridine]	4.2
Brc1cccc(-c2cc(-c3cnc4c(c3)OCO4)n[nH]2)c1 [Compound 34, 6-[5-(3-bromophenyl)-1H-pyrazol-3-yl]-1,3-dioxolo[4,5-b]pyridine]	41
Clc1cc(-c2nc(-c3ccc(N4CCCC4)cc3)c[nH]2)ccn1 [Compound 35, 2-chloro-4-{4-[4-(pyrrolidin-1-yl)phenyl]-1H-imidazol-2-yl}pyridine]	168
CNc1ccc(-c2cc(-c3cc(C)nc(Br)c3)[nH]n2)cc1 [Compound 38, 4-[5-(2-bromo-6-methylpyridin-4-yl)-1H-pyrazol-3-yl]-N-methylaniline]	113
Brc1cc(-c2nc(-c3ccc4c(c3)OCO4)n[nH]2)ccn1 [Compound 30, 4-[3-(1,3-benzodioxol-5-yl)-1H-1,2,4-triazol-5-yl]-2-bromopyridine]	12
CN1CCN(c2ccc(-c3cc(-c4ccnc(Br)c4)[nH]n3)cc2)CC1 [Compound 26, 1-{4-[5-(2-bromopyridin-4-yl)-1H-pyrazol-3-yl]phenyl}-4-methylpiperazine]	1
Brc1cc(-c2nc(-c3ccc4c(c3)OCO4)c[nH]2)ccn1 [Compound 33, 4-[4-(1,3-benzodioxol-5-yl)-1H-imidazol-2-yl]-2-bromopyridine]	33
6-[5-(2-bromopyridin-4-yl)-1H-pyrazol-3-yl]-1,3-dioxolo[4,5-b]pyridine [Compound 32]	18
CNc1ccc(-c2cc(-c3ccnc(F)c3)[nH]n2)cc1 [Compound 24, 4-[5-(2-fluoropyridin-4-yl)-1H-pyrazol-3-yl]-N-methylaniline]	0.8
4-[5-(2,6-dichloropyridin-4-yl)-1H-pyrazol-3-yl]-N,N-dimethylaniline [Compound 42]	23
Fc1cc(-c2cc(-c3ccc(N4CCOCC4)cc3)n[nH]2)ccn1 [Compound 27, 4-{4-[5-(2-fluoropyridin-4-yl)-1H-pyrazol-3-yl]phenyl}morpholine]	1.3
CNc1ccc(-c2cc(-c3cc(Br)nc(Br)c3)[nH]n2)cc1 [Compound 37, 4-[5-(2,6-dibromopyridin-4-yl)-1H-pyrazol-3-yl]-N-methylaniline]	16
Brc1cc(-c2c[nH]c(-c3ccc4c(c3)OCO4)n2)ccn1 [Compound 29, 4-[2-(1,3-benzodioxol-5-yl)-1H-imidazol-4-yl]-2-bromopyridine]	6.3
[2H]C([2H])([2H])Nc1ccc(-c2cc(-c3ccnc(Br)c3)[nH]n2)cc1 [Compound 21, 4-[5-(2-bromopyridin-4-yl)-1H-pyrazol-3-yl]-N-(^2H3)methylaniline]	0.3
FCCNc1ccc(-c2cc(-c3ccnc(Br)c3)[nH]n2)cc1 [Compound 25, 4-[5-(2-bromopyridin-4-yl)-1H-pyrazol-3-yl]-N-(2-fluoroethyl)aniline]	0.7
CN(C)c1ccc(-c2c[nH]c(-c3ccnc(Br)c3)n2)cc1 [Compound 31, 4-[2-(2-bromopyridin-4-yl)-1H-imidazol-4-yl]-N,N-dimethylaniline]	13

Now from value to molecule:

Ki [nM]	Molecule
3.9	CNc1ccc(-c2cc(-c3ccnc(Cl)n3)[nH]n2)cc1 [Compound 40, 4-[5-(2-chloropyrimidin-4-yl)-1H-pyrazol-3-yl]-N-methylaniline]
2.7	COCCN1CCN(c2ccc(-c3cc(-c4ccnc(Br)c4)[nH]n3)cc2)CC1 [Compound 51, 1-{4-[5-(2-bromopyridin-4-yl)-1H-pyrazol-3-yl]phenyl}-4-(2-methoxyethyl)piperazine]
4.2	CNc1ccc(-c2cc(-c3cnnc(Cl)c3)[nH]n2)cc1 [Compound 39, 4-[5-(6-chloropyridazin-4-yl)-1H-pyrazol-3-yl]-N-methylaniline]
1.2	FC1CN(c2ccc(-c3cc(-c4ccnc(Cl)c4)[nH]n3)cc2)C1 [Compound 55, 2-chloro-4-{3-[4-(3-fluoroazetidin-1-yl)phenyl]-1H-pyrazol-5-yl}pyridine]
59	Clc1cc(-c2cc(-c3ccc4c(c3)OCO4)n[nH]2)c(Cl)nn1 [Compound 48, 4-[5-(1,3-benzodioxol-5-yl)-1H-pyrazol-3-yl]-3,6-dichloropyridazine]
0.2	CN(C)c1ccc(-c2nc(-c3ccnc(Br)c3)c[nH]2)cc1 [Compound 45, 4-[4-(2-bromopyridin-4-yl)-1H-imidazol-2-yl]-N,N-dimethylaniline]
97	Cc1cc(-c2cc(-c3ccc4c(c3)OCO4)n[nH]2)cc(Br)n1 [Compound 47, 4-[3-(1,3-benzodioxol-5-yl)-1H-pyrazol-5-yl]-2-bromo-6-methylpyridine]
3.1	FC1CCN(c2ccc(-c3cc(-c4ccnc(Br)c4)[nH]n3)cc2)CC1 [Compound 52, 2-bromo-4-{3-[4-(4-fluoropiperidin-1-yl)phenyl]-1H-pyrazol-5-yl}pyridine]
61	Fc1cc(-c2cc(-c3ccc(N4CCNCC4)cc3)n[nH]2)ccn1 [Compound 49, 1-{4-[5-(2-fluoropyridin-4-yl)-1H-pyrazol-3-yl]phenyl}piperazine]
8.4	Fc1ccnc(-c2cc(-c3ccc4c(c3)OCO4)n[nH]2)c1 [Compound 54, 2-[3-(1,3-benzodioxol-5-yl)-1H-pyrazol-5-yl]-4-fluoropyridine]
14	CNc1ccc(-c2cc(-c3cccc(Cl)n3)[nH]n2)cc1 [Compound 41, 4-[5-(6-chloropyridin-2-yl)-1H-pyrazol-3-yl]-N-methylaniline]
0.9	FCCN1CCN(c2ccc(-c3cc(-c4ccnc(Cl)c4)[nH]n3)cc2)CC1 [Compound 50, 1-{4-[5-(2-chloropyridin-4-yl)-1H-pyrazol-3-yl]phenyl}-4-(2-fluoroethyl)piperazine]
0.8	CN(C)c1ccc(-c2cc(-c3ccnc(Cl)c3)[nH]n2)cc1 [Compound 53, 4-[5-(2-chloropyridin-4-yl)-1H-pyrazol-3-yl]-N,N-dimethylaniline]
0.6	CN(C)c1ccc(-c2nc(-c3ccnc(Br)c3)n[nH]2)cc1 [Compound 44, 4-[3-(2-bromopyridin-4-yl)-1H-1,2,4-triazol-5-yl]-N,N-dimethylaniline]
0.5	CN(C)c1ccc(-c2cc(-c3cc(Cl)ncn3)[nH]n2)cc1 [Compound 43, 4-[5-(6-chloropyrimidin-4-yl)-1H-pyrazol-3-yl]-N,N-dimethylaniline]
